Entries after “also recorded” stand apart in the source; their conditions may differ.
Experiments:
[1] = tested on: Chromobacterium violaceum (CV026); assay: Quorum sensing inhibition test with bio-reporter CV026 (TLC overlay); type: cell-based; conditions: for Degree of QSI of CV026: Table 1, coumaperine derivatives, 40 mM in ~20 μL acetonitrile dried on TLC plate, overnight, color intensity; for QSI activity against CV026, in words: running text; as to Degree of QSI of CV026: key: −: no inhibition; +: low inhibition; ++: medium inhibition; +++: strong inhibition; as to Degree of quorum sensing inhibition (QSI), CV026: key: −: no inhibition; +: low inhibition; ++: medium inhibition; +++: strong inhibition
Description: (§1) TLC preparation: all derivatives were dissolved in 100% acetonitrile to a concentration of 40 mM. Then placed 20 μlon the same spot on the TLC and let the solvent evaporate before use. CV026: few colonies were transferred to liquid LB (Lenox) for overnight incubation at 30° C. in a 45 degree in orbital shaker. At the O.D. 0.8 3 ml of the starter was added to preheated soft LB agar containing 500 nM of 3-oxo-C6 (Sigma-Aldrich). The mixture was then loaded on the TLC in a glass plate for O.N. incubation in 30° C. The next day inhibition zone was measured, while QS is taking place bacteria produce purple pigment, and when QS is inhibited no pigment is produced. KYC55 (pJZ372) (pJZ384) (pJZ410): 20 μl from the frozen stock into 25 ml AT media (AT buffer×20: 1.57 M KH2PO4 pH=7.3. AT salts mix×20: 300 mM (NH4)2SO4, 13 mM MgSO4, 1.4 mM CaCl2, 0.4 mM FeSO4·7H2O, 0.26 mM MnSO4·H2O. AT media: 50 ml×20 AT-buffer, 50 ml×20 AT-salts, 10 ml 50% (w/v) glucose, add 890 ml to final volume of 1 liter.) For O.N. at 30° C. in an orbital shaker. Into preheated water agar with 25 ml AT-buffer, and 60 μg/ml X-gal and 5 nM 3-oxo-c8 (both from Sigma-Aldrich) 25 ml of the starter was added. Then, that mixture was loaded on the TLC in glass plate for O.N. incubation in 30° C. The next day the inhibition zone was measured. The bacteria produce blue pigment during QS and when QS is inhibited no pigment is produced. KYC55 (pJZ372) (pJZ384) (pJZ410) preservation in tetracycline (1 μg/ml), spectinomycin (100 μg/ml), gentamicin (100 μg/ml) (all antibiotics from Sigma Aldrich) in AT media O.N. then centrifuged and suspend in 15% glycerol frozen and maintained at −80° C.

[2] = tested on: Agrobacterium tumefaciens (KYC55); assay: Quorum sensing inhibition test with bio-reporter KYC55 (TLC overlay); type: cell-based; conditions: for Degree of QSI of KYC55: Table 1, coumaperine derivatives, 40 mM in ~20 μL acetonitrile dried on TLC plate, overnight, color intensity; for QSI activity against KYC55, in words: running text; as to Degree of QSI of KYC55: key: −: no inhibition; +: low inhibition; ++: medium inhibition; +++: strong inhibition; as to Degree of quorum sensing inhibition (QSI), KYC55: key: −: no inhibition; +: low inhibition; ++: medium inhibition; +++: strong inhibition
Description: as §1

[3] = Table 2, piperlongumine derivatives

SMILES | Degree of QSI of CV026 [1] | QSI activity against CV026, in words [1] | Degree of QSI of KYC55 [2] | QSI activity against KYC55, in words [2] | Degree of quorum sensing inhibition (QSI), CV026 [1, 3] | Degree of quorum sensing inhibition (QSI), KYC55 [2, 3]
O=C(/C=C/C=C/c1ccc(Cl)cc1)N1CCCCC1 [CP-123, (2E,4E)-5-(4-chlorophenyl)-1-(piperidin-1-yl)penta-2,4-dien-1-one] | − | inactive | + | low activity |  | 
O=C(/C=C/C=C/c1ccc(OC2CCCC2)cc1)N1CCCCC1 [CP-184, (2E,4E)-5-(4-(cyclopentyloxy)phenyl)-1-(piperidin-1-yl)penta-2,4-dien-1-one] | − | inactive | − | inactive |  | 
COc1cc(/C=C/C=C/C(=O)N2CCCCC2)cc(OC)c1 [CP-193, (2E,4E)-5-(3,5-dimethoxyphenyl)-1-(piperidin-1-yl)penta-2,4-dien-1-one] | + | low activity | − | inactivity |  | 
COc1cc(OC)c(/C=C/C=C/C(=O)N2CCCCC2)c(OC)c1 [CP-194, (2E,4E)-1-(piperidin-1-yl)-5-(2,4,6-trimethoxyphenyl)penta-2,4-dien-1-one] | − | inactive | − | inactive |  | 
O=C(/C=C/C=C/c1ccc(O)c(O)c1)N1CCCCC1 [CP-209, (2E,4E)-5-(3,4-dihydroxyphenyl)-1-(piperidin-1-yl)penta-2,4-dien-1-one] | + | low activity; also recorded: inactive | + | low activity; also recorded: inactive |  | 
O=C(/C=C/c1ccc(O)c(O)c1)N1CCCCC1 [CP-237, (E)-3-(3,4-dihydroxyphenyl)-1-(piperidin-1-yl)prop-2-en-1-one] | ++ | moderate activity | ++ | moderate activity |  | 
O=C(/C=C/C=C/C=C/c1ccc(O)c(O)c1)N1CCCCC1 [CP-239A, (2E,4E,6E)-7-(3,4-dihydroxyphenyl)-1-(piperidin-1-yl)hepta-2,4,6-trien-1-one] | − | inactive | − | inactive |  | 
O=C(/C=C/C=C/c1ccc2c(c1)OCO2)N1CCCCC1 [CP-262-F1] | − | inactive | − | inactive |  | 
O=C(/C=C/C=C/c1cc(O)c(O)c(O)c1)N1CCCCC1 [CP-262-F2, (2E,4E)-1-(piperidin-1-yl)-5-(3,4,5-trihydroxyphenyl)penta-2,4-dien-1-one] | − | inactive | + | low activity |  | 
COc1cc(/C=C/C(=O)N2CCCCC2)ccc1OC(C)=O [CP-291] | − | inactive | ++ | moderate activity |  | 
COc1cc(/C=C/C(=O)N2CCCCC2)ccc1O [CP-293] | − | inactive | − | inactive |  | 
O=C(CCCCc1ccc2c(c1)OCO2)N1CCCCC1 [CP-THP, Tetrahydro Piperine] | + | low activity | + | low activity |  | 
COc1cc(/C=C/C(=O)OC(=O)/C=C/c2cc(OC)c(OC)c(OC)c2)cc(OC)c1OC [PL-16A] |  | inactive |  | inactive | − | −

Reference: patent publication US20240109855A1, “ANTI-QUORUM SENSING, ANTI-BIOFILM, AND INFLAMMATION ATTENUATING COMPOUNDS, COMPOSITIONS, AND METHODS OF USING SAME” (priority 2021, published 2024)
